Experimental data as given in patent US20040127492A1 (Pharmacia Corporation, priority 2002, published 2004).
Where two headings read alike, the source gives them in different places.

What was measured:
adjuvant arthritis = conditions: rat adjuvant arthritis; cited from earlier work
endotoxin-induced shock = conditions: murine model of endotoxin-induced shock; cited from earlier work
[1] = system: collagen-induced arthritis; conditions: mouse collagen-induced arthritis; cited from earlier work
granulomas = conditions: laboratory rats; cited from earlier work
MAPKAPK2 (MK-2) = MAPKAPK2 (MK-2) (Homo sapiens, UniProt P49137); test: Determination of MK-2 IC50 (HSP-peptide phosphorylation, anion exchange resin capture assay); assay type: biochemical
In short: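 MAPKAPK2, preactivated by p38α with 0.25 mM ATP for 1 h at 30° C, used at 15 nM to phosphorylate HSP-peptide with 0.03 mM ATP plus [γ33P]ATP, pH 7.5, 2% DMSO, 30 min at 30° C. Labelled peptide counted after anion-exchange resin capture; IC50 from six ten-fold dilutions, triplicate.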

MK-3 = MK-3 (Homo sapiens, UniProt Q16644); test: MK-3 inhibition IC50 (similar method to MK-2, with appropriate modifications); assay type: biochemical
[2] = Table 1, phenoxypyrazole MK-2 inhibitors, read-out: MK-2 Avg, IC50
[3] = Table 1, phenoxypyrazole MK-2 inhibitors, read-out: MK-3 Avg. IC50
[4] = Table 4, pyrimidylpyrazole MK-2 inhibitors, read-out: MK-2 Avg. IC50
[5] = Table 4, pyrimidylpyrazole MK-2 inhibitors, read-out: NK-3 Avg. IC50
[6] = Table 2, pyrazolylpyrazole MK-2 inhibitors, read-out: MK-3 Avg. IC50
[7] = Table 2, pyrazolylpyrazole MK-2 inhibitors, read-out: MK-2 Avg. IC50

Sequence of MK-3 (Q16644 whole entry, species assumed): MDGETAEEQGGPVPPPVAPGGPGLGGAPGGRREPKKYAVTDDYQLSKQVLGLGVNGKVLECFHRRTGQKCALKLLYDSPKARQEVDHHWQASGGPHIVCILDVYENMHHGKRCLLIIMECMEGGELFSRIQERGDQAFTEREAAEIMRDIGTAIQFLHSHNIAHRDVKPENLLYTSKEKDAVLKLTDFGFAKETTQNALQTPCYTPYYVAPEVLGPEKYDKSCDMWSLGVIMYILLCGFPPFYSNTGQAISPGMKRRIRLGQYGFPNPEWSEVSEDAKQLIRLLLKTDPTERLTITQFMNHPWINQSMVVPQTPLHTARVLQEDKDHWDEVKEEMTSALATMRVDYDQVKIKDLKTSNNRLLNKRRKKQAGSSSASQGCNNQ
Sequence of MAPKAPK2 (MK-2) (P49137 whole entry, species assumed): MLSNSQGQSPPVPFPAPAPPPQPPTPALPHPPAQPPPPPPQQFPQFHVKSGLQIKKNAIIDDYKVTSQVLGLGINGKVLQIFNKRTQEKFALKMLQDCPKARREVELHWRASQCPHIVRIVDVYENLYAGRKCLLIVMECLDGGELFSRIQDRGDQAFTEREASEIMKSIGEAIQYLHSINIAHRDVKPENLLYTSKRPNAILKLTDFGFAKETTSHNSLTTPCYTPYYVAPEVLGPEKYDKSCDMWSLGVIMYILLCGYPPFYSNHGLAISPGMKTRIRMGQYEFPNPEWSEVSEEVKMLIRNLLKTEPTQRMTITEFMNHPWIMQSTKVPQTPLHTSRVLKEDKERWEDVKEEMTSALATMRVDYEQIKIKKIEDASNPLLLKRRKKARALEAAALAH

IC50 (MAPKAPK2 (MK-2); [2]) [µM] | IC50 (MK-3; [3]) [µM] | IC50 (MAPKAPK2 (MK-2); read-out: MK-2 Avg. IC50) [µM] | IC50 (MK-3; read-out: MK-3 Avg. IC50) [µM] | SMILES | further results
 |  |  |  | C[S+]([O-])c1ccc(-c2nc(-c3ccncc3)c(-c3ccc(F)cc3)[nH]2)cc1 (centres unmarked) [SB203580] | development of arthritis (adjuvant arthritis): inhibit the development; mortality (endotoxin-induced shock): reduce mortality; development of arthritis [1]: inhibit the development
 |  |  |  | Nc1nccc(-c2c(-c3ccc(F)cc3)ncn2C2CCNCC2)n1 [SB 220025] | vascular density of granulomas (granulomas): significant dose-dependent decrease
12.9 | > 200 |  |  | CS(=O)(=O)c1cccc(-c2cc3c(cc2O)CCc2c-3nn(CCCN)c2C(=O)O)c1 [Example 16] | 
 |  | 0.561 | 44.3 | N#Cc1ccc(CCCNCCCn2nc3c(c2C(=O)O)CCc2cnccc2-3)cc1 [Example 58] | 
 |  | 0.0296 | 0.269 | NCCCn1nc2c(c1C(=O)O)CCc1cnc(-c3ccc4c(c3)OCO4)cc1-2 [Example 7] | 
 |  | 0.603 | 12.6 | CC(=O)c1ccc(CCCNCCCn2nc3c(c2C(=O)O)CCc2cnccc2-3)cc1 [Example 63] | 
 |  | 0.21 | 11.5 | O=C1NCCn2nc3c(c21)CCc1cnc(/C=C/c2ccccc2)cc1-3 [Example 36] | 
 |  | 14 | 74.8 | O=C1NCCn2nc3c(c21)CCc1cnc(-c2cccc4cccnc24)cc1-3 [Example 171] | 
> 200 | > 200 |  |  | COc1ccc2c(c1)CCc1c(C(=O)O)nn(-c3ccc(S(N)(=O)=O)cc3)c1-2 [Example 166] | 
> 200 | > 200 |  |  | CCOC(=O)c1nn(-c2ccc(S(N)(=O)=O)cc2)c2c1CCc1cc(OC)c(OC)cc1-2 [Example 174] | 
 |  | 0.825 | 35 | O=C1NC(CO)Cn2nc3c(c21)CCc1cnccc1-3 (centres unmarked) [Example 71] | 
 |  |  |  | O=C1NCCCn2nc3c(c21)CCc1cnc(-c2cccnc2)nc1-3 [Example 5] | IC50 (MAPKAPK2 (MK-2); [4]): 1.58 µM; IC50 (MK-3; [5]): 168 µM
 |  |  |  | CCOC(=O)c1nn(-c2ccccc2)c2c1CCc1[nH]ncc1-2 [Example 54] | IC50 (MAPKAPK2 (MK-2); MK-2 Avg. IC50 (uM), Table 2, pyrazolylpyrazole MK-2 inhibitors): ≥ 200 µM; IC50 (MK-3; [6]): ≥ 200 µM
 |  | 0.074 | 1.15 | NCCCn1nc2c(c1C(=O)O)CCc1cnc(Nc3ccccc3)cc1-2 [Example 16] | 
4.91 | 104 |  |  | NCCCn1nc2c(c1C(=O)O)CCc1cc(O)c(-c3ccc([N+](=O)[O-])cc3)cc1-2 [Example 9] | 
19.6 | > 200 |  |  | O=C(O)c1[nH]nc2c1CCc1cc(O)ccc1-2 [Example 24] | 
 |  | 0.162 | 4.67 | NCCCn1nc2c(c1C(=O)NO)CCc1cnc(-c3cnc4ccccc4c3)cc1-2 [Example 28] | 
173 | 196 |  |  | CC1Cc2cc(O)ccc2-c2n[nH]c(C(N)=O)c21 (centres unmarked) [Example 68] | 
 |  |  |  | NC(=O)c1[nH]nc2c1CCc1c-2cnn1-c1ccccc1 [Example 51] | IC50 (MAPKAPK2 (MK-2); [7]): ≥ 200 µM; IC50 (MK-3; [6]): ≥ 200 µM
 |  | 0.522 | 11.2 | O=C(O)c1c2c(nn1CCCNCCc1ccc(-c3cccnc3)cc1)-c1ccncc1CC2 [Example 55] | 
2.14 | > 200 |  |  | NCCn1nc2c(c1C(=O)O)CCc1cc(O)c(Br)cc1-2 [Example 5] | 
98.1 | 161 |  |  | COc1cc2c(cc1-c1ccc(Cl)cc1)-c1nn(CCCNC(=O)OC(C)(C)C)c(C(=O)O)c1CC2 [Example 49] | 
7.53 | 71.7 |  |  | NCCCn1nc2c(c1C(=O)O)CCc1cc(O)c(-c3cccc(C(F)(F)F)c3)cc1-2 [Example 11] | 
 |  |  |  | COc1ccc(/C=C/c2cc3c(cn2)CCc2c-3nn3c2C(=O)NCC3)cc1 [Example 12] | IC50 (MAPKAPK2 (MK-2); Table 5, other cyclic pyrazole MK-2 inhibiting compounds, read-out: MK-2 Avg. IC50): 4.76 µM; IC50 (MK-3; Table 5, other cyclic pyrazole MK-2 inhibiting compounds, read-out: MK-3 Avg. IC50): > 200 µM
 |  | 0.575 | 15.6 | O=C(O)c1c2c(nn1CCCNCCc1ccc(-c3csc4ccccc34)cc1)-c1ccncc1CC2 [Example 60] | 
 |  | 0.622 | 26.1 | CS(=O)(=O)c1ccc(CCCNCCCn2nc3c(c2C(=O)O)CCc2cnccc2-3)cc1 [Example 65] | 

IC50 (MAPKAPK2 (MK-2); [2]) [µM] | IC50 (MK-3; [3]) [µM] | IC50 (MAPKAPK2 (MK-2); read-out: MK-2 Avg. IC50) [µM] | IC50 (MK-3; read-out: MK-3 Avg. IC50) [µM] | SMILES | further results
 |  |  |  | NCCCn1nc2c(c1C(=O)O)CCc1cnc(-c3ccc4c(c3)OCO4)nc1-2 [Example 2] | IC50 (MAPKAPK2 (MK-2); [4]): 0.295 µM; IC50 (MK-3; [5]): 4.61 µM
 |  | 0.164 | 27.5 | O=C1NCCn2nc3c(c21)CCc1cnc(/C=C/c2ccc(O)cc2)cc1-3 [Example 29] | 
> 200 | > 200 |  |  | COc1ccc2c(c1)CCc1c(C(=O)NCCCN(C)C)nn(-c3ccc(Cl)cc3)c1-2 [Example 161] | 
 |  |  |  | NC(=O)c1[nH]nc2c1CCc1[nH]ncc1-2 [Example 17] | IC50 (MAPKAPK2 (MK-2); [7]): 28.4 µM; IC50 (MK-3; [6]): 129 µM
> 200 | > 200 |  |  | COC(=O)c1c2c(nn1CCCNC(=O)OC(C)(C)C)-c1cc(Br)c(OC)cc1CC2 [Example 184] | 
 |  | 9.73 | 133 | Nc1ccc(NCCCn2nc3c(c2C(=O)O)CCc2cnccc2-3)cc1 [Example 158] | 
> 200 | > 200 |  |  | COC(=O)c1nn(-c2ccc(S(N)(=O)=O)cc2)c2c1CCc1cc(OC)ccc1-2 [Example 172] | 
139 | > 200 |  |  | C=CCC1Cc2c(C(N)=O)n[nH]c2-c2ccc(O)cc21 (centres unmarked) [Example 56] | 
 |  | 0.272 | 36 | CN(C)c1ccc(-c2cc3c(cn2)CCc2c-3nn3c2C(=O)NCC3)cc1 [Example 42] | 
10.5 | 121 |  |  | NCCCn1nc2c(c1C(=O)O)CCc1cc(O)c(-c3cccc(Cl)c3)cc1-2 [Example 13] | 
 |  |  |  | CS(=O)(=O)c1ccc(-n2nc(C(N)=O)c3c2-c2cn[nH]c2CC3)cc1 [Example 35] | IC50 (MAPKAPK2 (MK-2); [7]): 124 µM; IC50 (MK-3; [6]): ≥ 200 µM
 |  | 0.0867 | 0.861 | O=C1NCCn2nc3c(c21)CCc1cnc(-c2ccc(O)cc2)cc1-3 [Example 19] | 
 |  | 9.84 | 22.8 | O=C1NCCn2nc3c(c21)CCc1cnc(N2CCC(O)CC2)cc1-3 [Example 159] | 
10.7 | > 200 |  |  | CC1Cc2c(nn(CCCN)c2C(=O)O)-c2ccc(O)cc21 (centres unmarked) [Example 14] | 
56.2 | > 200 |  |  | Cn1nc(C(=O)O)c2c1-c1ccc(O)cc1CC2 [Example 39] | 
35.6 | > 200 |  |  | C=CCn1nc2c(c1C(=O)O)CCc1cc(O)ccc1-2 [Example 31] | 
> 200 | > 200 |  |  | COc1ccc(-n2nc(C(N)=O)c3c2-c2ccc(O)cc2CC3)cc1 [Example 158] | 
 |  |  |  | CNC(=O)c1nn(-c2ccc(S(N)(=O)=O)cc2)c2c1CCc1c-2cnn1Cc1ccccc1 [Example 48] | IC50 (MAPKAPK2 (MK-2); [7]): ≥ 200 µM; IC50 (MK-3; [6]): ≥ 200 µM
 |  | 36.9 | 186 | N#CC(N)CCn1nc2c(c1C(=O)O)CCc1cnccc1-2 (centres unmarked) [Example 207] | 
 |  | 0.931 | 34.8 | CCOc1ccc(CCNCCCn2nc3c(c2C(=O)O)CCc2cnccc2-3)cc1 [Example 74] | 
 |  |  |  | O=C(O)c1[nH]nc2c1CCc1c-2cnn1CCO [Example 30] | IC50 (MAPKAPK2 (MK-2); [7]): 114 µM; IC50 (MK-3; [6]): ≥ 200 µM
47.3 | > 200 |  |  | NCCCn1nc2c(c1C(=O)O)CCc1cc(O)c(-c3cccc(C(=O)O)c3)cc1-2 [Example 36] | 
 |  | 0.211 | 7.71 | O=C(O)c1c2c(nn1CCCNCCc1ccc(-c3ccncc3)cc1)-c1ccncc1CC2 [Example 37] | 
2.09 | 37.9 |  |  | NCCCn1nc2c(c1C(=O)O)CCc1cc(O)ccc1-2 [Example 4] | 
 |  |  |  | NC(=O)c1ccc(-n2nc(C(N)=O)c3c2-c2cn[nH]c2CC3)cc1 [Example 24] | IC50 (MAPKAPK2 (MK-2); [7]): 78.4 µM; IC50 (MK-3; [6]): ≥ 200 µM
 |  | 0.201 | 7.22 | CC(C)(C)c1ccc(-c2ccc(CCNCCCn3nc4c(c3C(=O)O)CCc3cnccc3-4)cc2)cc1 [Example 33] | 
